Test results published in patent publication US20250197403A1, “HETEROARYL COMPOUNDS FOR TREATMENT OF COMPLEMENT FACTOR D MEDIATED DISORDERS” (Achillion Pharmaceuticals, Inc., priority 2020, published 2025).

Target: Human Factor D (Homo sapiens (Human), UniProt P00746)
Assay: Human Factor D Assay
Format: biochemical
Conditions: Human Factor D 80 nM, substrate Z-L-Lys-SBzl, assay according to Example 3
Experimental: The assay according to Example 3 was used to determine the IC50's of the compounds. Other standard factor D inhibition assays are also available.
Human Factor D (purified from human serum, Complement Technology, Inc.) at 80 nM final concentration is incubated with test compound at various concentrations for 5 min at room temperature in 50 mM Tris, 1M NaCl, pH 7.5. A synthetic substrate Z-L-Lys-SBzl and DTNB (Ellman's reagent) are added to final concentrations of 100 μM each. Absorbance at 405 nm (A405) is recorded at 30 second intervals for 30 min using a microplate spectrophotometer. IC50 values are calculated by nonlinear regression of complement Factor D reaction rates as a function of test compound concentration.

Sequence of Human Factor D (P00746 26-253): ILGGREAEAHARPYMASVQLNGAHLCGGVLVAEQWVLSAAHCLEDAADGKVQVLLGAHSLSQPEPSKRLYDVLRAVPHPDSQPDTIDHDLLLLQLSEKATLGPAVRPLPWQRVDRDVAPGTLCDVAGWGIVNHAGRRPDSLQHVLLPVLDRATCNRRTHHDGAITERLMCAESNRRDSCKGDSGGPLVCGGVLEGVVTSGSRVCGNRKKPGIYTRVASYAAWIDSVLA

Structure (SMILES) | IC50
COCc1ccc(C(F)(F)F)nc1NC(=O)[C@@H]1C[C@@]2(C)C[C@H]2N1C(=O)Cn1cc(C(C)=O)c2cc(-c3cnc4cc(C)nn4c3)c(F)c(C)c21 [Compound 2, (1R,3S,5R)-2-(2-(3-acetyl-6-fluoro-7-methyl-5-(2-methylpyrazolo[1,5-a]-pyrimidin-6-yl)-1H-indol-1-yl)acetyl)-N-(3-(meth-oxymethyl)-6-(trifluoro-methyl)pyridin-2-yl)-5-methyl-2-azabicyclo[3.1.0] hexane-3-carboxamide] | < 1000 nM
CC(=O)c1cn(CC(=O)N2[C@H](C(=O)Nc3nc(C(F)(F)F)ccc3Cl)C[C@@]3(C)C[C@@H]23)c2c(C)cc(-c3ccc4nc(C)nn4c3)cc12 [Compound 3, (1R,3S,5R)-2-(2-(3-acetyl-7-methyl-5-(2-methyl-[1,2,4]triazolo[1,5-a]pyr-idin-6-yl)-1H-indol-1-yl)-acetyl)-N-(3-chloro-6-(tri-fluoromethyl)pyridin-2-yl)-5-methyl-2-azabicyclo-[3.1.0]hexane-3-carbox-amide] | < 1000 nM
COCc1ccc(C(F)(F)F)nc1NC(=O)[C@@H]1[C@@H]2C[C@@H]2CN1C(=O)Cn1cc(C(C)=O)c2cc(-c3ccc4nc(C)nn4c3)cc(C)c21 [Compound 4, (1R,2S,5S)-3-(2-(3-acetyl-7-methyl-5-(2-methyl-[1,2,4]triazolo[1,5-a]pyr-idin-6-yl)-1H-indol-1-yl)-acetyl)-N-(3-(methoxy-methyl)-6-(trifluorometh-yl)pyridin-2-yl)-3-aza-bicyclo[3.1.0]hexane-2-carboxamide] | < 1000 nM
COCc1ccc(C(F)(F)F)nc1NC(=O)[C@@H]1C[C@@]2(C)C[C@H]2N1C(=O)Cn1cc(C(C)=O)c2cc(-c3ccc4nc(C)nn4c3)c(F)c(C)c21 [Compound 5, (1R,3S,5R)-2-(2-(3-acetyl-6-fluoro-7-methyl-5-(2-methyl-[1,2,4]triazolo[1,5-a]pyridin-6-yl)-1H-indol-1-yl)acetyl)-N-(3-(meth-oxymethyl)-6-(trifluoro-methyl)pyridin-2-yl)-5-methyl-2-azabicyclo[3.1.0] hexane-3-carboxamide] | < 1000 nM
CC(=O)c1cn(CC(=O)N2C[C@H]3C[C@H]3[C@H]2C(=O)Nc2nc(C(F)(F)F)ccc2Cl)c2c(C)cc(-c3cnc4cc(C)nn4c3)cc12 [Compound 6, (1R,2S,5S)-3-(2-(3-acetyl-7-methyl-5-(2-methylpyr-azolo[1,5-a]pyrimidin-6-yl)-1H-indol-1-yl)acetyl)-N-(3-chloro-6-(trifluoro-methyl)pyridin-2-yl)-3-azabicyclo[3.1.0]hexane-2-carboxamide] | < 1000 nM
COCc1ccc(C(F)(F)F)nc1NC(=O)[C@@H]1[C@@H]2C[C@@H]2CN1C(=O)Cn1cc(C(C)=O)c2cc(-c3cnc4cc(C)nn4c3)cc(C)c21 [Compound 7, (1R,2S,5S)-3-(2-(3-acetyl-7-methyl-5-(2-methylpyr-azolo[1,5-a]pyrimidin-6-yl)-1H-indol-1-yl)acetyl)-N-(3-(methoxymethyl)-6-(trifluoromethyl)pyridin-2-yl)-3-azabicyclo[3.1.0] hexane-2-carboxamide] | < 1000 nM
CC(=O)c1cn(CC(=O)N2[C@H](C(=O)Nc3nc(Br)ccc3C3CC3)C[C@@]3(C)C[C@@H]23)c2c(C)cc(-c3cnc4cc(C)nn4c3)cc12 [Compound 8, (1R,3S,5R)-2-(2-(3-acetyl-7-methyl-5-(2-methylpyr-azolo[1,5-a]pyrimidin-6-yl)-1H-indol-1-yl)acetyl)-N-(6-bromo-3-cycloprop-ylpyridin-2-yl)-5-methyl-2-azabicyclo[3.1.0]hexane-3-carboxamide] | > 10000 nM
CC(=O)c1cn(CC(=O)N2C[C@@](F)(CF)C[C@H]2C(=O)Nc2nc(C(F)(F)F)ccc2C)c2c(C)cc(-c3cnc4cc(C)nn4c3)cc12 [Compound 10, (2S,4R)-1-(2-(3-acetyl-7-methyl-5-(2-methylpyr-azolo[1,5-a]pyrimidin-6-yl)-1H-indol-1-yl)acetyl)-4-fluoro-4-(fluoromethyl)-N-(3-methyl-6-(trifluoro-methyl)pyridin-2-yl)pyr-rolidine-2-carboxamide] | < 1000 nM
CC(=O)c1cn(CC(=O)N2C[C@@](F)(CF)C[C@H]2C(=O)Nc2nc(C(F)(F)F)ccc2C)c2c(C)cc(-c3ccc4nc(C)nn4c3)cc12 [Compound 11, (2S,4R)-1-(2-(3-acetyl-7-methyl-5-(2-methyl-[1,2,4]triazolo[1,5-a]pyr-idin-6-yl)-1H-indol-1-yl)-acetyl)-4-fluoro-4-(fluoro-methyl)-N-(3-methyl-6-(trifluoromethyl)pyridin-2-yl)pyrrolidine-2-carbox-amide] | < 1000 nM
CC(=O)c1cn(CC(=O)N2[C@H](C(=O)Nc3nc(C(F)(F)F)cc(F)c3C)C[C@@]3(C)C[C@@H]23)c2c(C)cc(-c3cnc4cc(C)nn4c3)cc12 [Compound 12, (1R,3S,5R)-2-(2-(3-acetyl-7-methyl-5-(2-methylpyr-azolo[1,5-a]pyrimidin-6-yl)-1H-indol-1-yl)acetyl)-N-(4-fluoro-3-methyl-6-(trifluoromethyl)pyridin-2-yl)-5-methyl-2-azabicyclo [3.1.0]hexane-3-carbox-amide] | < 1000 nM
CC(=O)c1cn(CC(=O)N2[C@H](C(=O)Nc3nc(C(F)(F)F)ccc3C)C[C@@]3(C)C[C@@H]23)c2c(C)cc(-c3cnc4cc(C#N)nn4c3)cc12 [Compound 13, (1R,3S,5R)-2-(2-(3-acetyl-5-(2-cyanopyrazolo[1,5-a]pyrimidin-6-yl)-7-methyl-1H-indol-1-yl)acetyl)-5-methyl-N-(3-methyl-6-(trifluoromethyl)pyridin-2-yl)-2-azabicyclo[3.1.0] hexane-3-carboxamide] | < 1000 nM
CC(=O)c1cn(CC(=O)N2[C@H](C(=O)Nc3nc(C(F)(F)F)ccc3C#N)C[C@@]3(C)C[C@@H]23)c2c(C)cc(-c3cnc4cc(C)nn4c3)cc12 [Compound 14, (1R,3S,5R)-2-(2-(3-acetyl-7-methyl-5-(2-methylpyr-azolo[1,5-a]pyrimidin-6-yl)-1H-indol-1-yl)acetyl)-N-(3-cyano-6-(trifluoro-methyl)pyridin-2-yl)-5-methyl-2-azabicyclo[3.1.0] hexane-3-carboxamide] | < 1000 nM
CC(=O)c1cn(CC(=O)N2[C@H](C(=O)Nc3nc(Br)cc(F)c3C)C[C@@]3(C)C[C@@H]23)c2c(C)cc(-c3cnc(C)nc3)cc12 [Compound 15, (1R,3S,5R)-2-(2-(3-acetyl-7-methyl-5-(2-methylpyr-imidin-5-yl)-1H-indol-1-yl)acetyl)-N-(6-bromo-4-fluoro-3-methylpyridin-2-yl)-5-methyl-2-azabicyclo [3.1.0]hexane-3-carbox-amide] | < 1000 nM
CC(=O)c1cn(CC(=O)N2[C@H](C(=O)Nc3nc(C(F)(F)F)c(F)cc3C)C[C@@]3(C)C[C@@H]23)c2c(C)cc(-c3cnc4cc(C)nn4c3)cc12 [Compound 16, (1R,3S,5R)-2-(2-(3-acetyl-7-methyl-5-(2-methylpyr-azolo[1,5-a]pyrimidin-6-yl)-1H-indol-1-yl)acetyl)-N-(5-fluoro-3-methyl-6-(trifluoromethyl)pyridin-2-yl)-5-methyl-2-azabicyclo [3.1.0]hexane-3-carbox-amide] | < 1000 nM
CC(=O)c1nn(CC(=O)N2[C@H](C(=O)Nc3nc(Br)c(F)cc3C)C[C@@]3(C)C[C@@H]23)c2c(C)cc(-c3cnc([C@H](C)O)nc3)cc12 [Compound 17, (1R,3S,5R)-2-(2-(3-acetyl-5-(2-((S)-1-hydroxyethyl)-pyrimidin-5-yl)-7-methyl-1H-indazol-1-yl)acetyl)-N-(6-bromo-5-fluoro-3-meth-ylpyridin-2-yl)-5-methyl-2-azabicyclo[3.1.0]hexane-3-carboxamide] | < 1000 nM
CC(=O)c1nn(CC(=O)N2[C@H](C(=O)Nc3nc(Br)c(F)cc3C)C[C@@]3(C)C[C@@H]23)c2c(C)cc(-c3cnc([C@@H](C)O)nc3)cc12 [Compound 18, (1R,3S,5R)-2-(2-(3-acetyl-5-(2-((R)-1-hydroxyethyl)-pyrimidin-5-yl)-7-methyl-1H-indazol-1-yl)acetyl)-N-(6-bromo-5-fluoro-3-meth-ylpyridin-2-yl)-5-methyl-2-azabicyclo[3.1.0]hexane-3-carboxamide] | < 1000 nM
CC(=O)c1cn(CC(=O)N2[C@H](C(=O)Nc3nc(C(F)(F)F)c(F)cc3C)C[C@@]3(C)C[C@@H]23)c2c(C)cc(-c3ccc4nc(C)nn4c3)cc12 [Compound 19, (1R,3S,5R)-2-(2-(3-acetyl-7-methyl-5-(2-methyl-[1,2,4]triazolo[1,5-a]pyr-idin-6-yl)-1H-indol-1-yl)-acetyl)-N-(5-fluoro-3-methyl-6-(trifluorometh-yl)pyridin-2-yl)-5-methyl-2-azabicyclo[3.1.0]hexane-3-carboxamide] | < 1000 nM
CC(=O)c1cn(CC(=O)N2[C@H](C(=O)Nc3nc(Br)ccc3C)C[C@@]3(C)C[C@@H]23)c2cc3c(cc12)NC1(COC1)CO3 [Compound 20, (1R,3S,5R)-2-(2-(8′-acetyl-1′H-spiro[oxetane-3,2′-[1,4]oxazino[3,2-f]indol]-6′(3′H)-yl)acetyl)-N-(6-bromo-3-methylpyridin-2-yl)-5-methyl-2-azabicyclo [3.1.0]hexane-3-carbox-amide] | < 1000 nM
CC(=O)c1cn(CC(=O)N2[C@H](C(=O)Nc3nc(Br)ccc3Cl)C[C@@]3(C)C[C@@H]23)c2c(C)nc(-c3cnc(C)nc3)cc12 [Compound 21, (1R,3S,5R)-2-(2-(3-acetyl-7-methyl-5-(2-methylpyr-imidin-5-yl)-1H-pyrrolo [2,3-c]pyridin-1-yl)acetyl)-N-(6-bromo-3-chloropyr-idin-2-yl)-5-methyl-2-aza-bicyclo[3.1.0]hexane-3-carboxamide] | < 1000 nM
